US20220177538A1, “CO-AGONISTS AT GLP-1 AND GIP RECEPTORS SUITABLE FOR ORAL DELIVERY” (Novo Nordisk A/S, priority 2020, published 2022)
Read-outs that look alike come from different tables or passages of the source. Starred links: 1 amine or outer side, 2 acyl side, 3 side chain; linkers in the order of their positions; H or OH if unused. Non-standard residues stand in square brackets, D forms with d. Residues, ends and D or L forms follow the SMILES beside them. Groups on a side chain read outwards from the residue. *: point of attachment. C16 diacid = O=C(O)CCCCCCCCCCCCCCC(=O)*; γGlu = O=C(O)[C@H](CCC(=O)[*:2])N[*:1]; εLys = N[C@@H](CCCCN[*:1])C(=O)[*:2]; Aib = CC(C)(N)C(=O)O

Assays:
human GIP receptor = target: T1, human GIP receptor (Homo sapiens, UniProt P48546); experiment: In vitro functional potency, CRE luciferase reporter, whole BHK cells (hGIPR); type: cell-based; details: BHK CRE luc2P hGIPR cells
T1 construct: expressed in transfected cells; host or cells: BHK (parent line BHKTS13), clone BHK CRE luc2P hGIPR
T1 sequence (P48546 22-466): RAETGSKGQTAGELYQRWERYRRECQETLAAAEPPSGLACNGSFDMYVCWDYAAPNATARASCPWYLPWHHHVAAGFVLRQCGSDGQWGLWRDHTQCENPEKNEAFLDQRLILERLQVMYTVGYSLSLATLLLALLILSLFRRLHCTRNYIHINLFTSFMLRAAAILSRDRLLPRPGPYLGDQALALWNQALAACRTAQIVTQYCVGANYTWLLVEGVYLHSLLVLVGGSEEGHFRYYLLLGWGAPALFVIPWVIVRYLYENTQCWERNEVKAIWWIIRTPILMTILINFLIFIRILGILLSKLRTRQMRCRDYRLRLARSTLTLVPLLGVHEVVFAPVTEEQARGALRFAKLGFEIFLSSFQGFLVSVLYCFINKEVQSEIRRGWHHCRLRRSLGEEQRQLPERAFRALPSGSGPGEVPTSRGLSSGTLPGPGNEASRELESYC
In short: (§1)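 Potencies are replicate means (n≥2) from non-linear log(agonist) vs response fits of CRE-driven luminescence. Cells were overnight-plated BHK CRE luc2P lines transfected with human GIPR or GLP-1R, 5000/well.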

human GLP-1 receptor = human GLP-1 receptor (Homo sapiens, UniProt P43220); experiment: In vitro functional potency, CRE luciferase reporter, whole BHK cells (hGLP-1R); type: cell-based; parameters: expressed in transfected cells; host or cells: BHK (parent line BHKTS13), clone BHK CRE luc2P hGLP-1R; details: BHK CRE luc2P hGLP-1R cells
human GLP-1 receptor, sequence (P43220 24-463): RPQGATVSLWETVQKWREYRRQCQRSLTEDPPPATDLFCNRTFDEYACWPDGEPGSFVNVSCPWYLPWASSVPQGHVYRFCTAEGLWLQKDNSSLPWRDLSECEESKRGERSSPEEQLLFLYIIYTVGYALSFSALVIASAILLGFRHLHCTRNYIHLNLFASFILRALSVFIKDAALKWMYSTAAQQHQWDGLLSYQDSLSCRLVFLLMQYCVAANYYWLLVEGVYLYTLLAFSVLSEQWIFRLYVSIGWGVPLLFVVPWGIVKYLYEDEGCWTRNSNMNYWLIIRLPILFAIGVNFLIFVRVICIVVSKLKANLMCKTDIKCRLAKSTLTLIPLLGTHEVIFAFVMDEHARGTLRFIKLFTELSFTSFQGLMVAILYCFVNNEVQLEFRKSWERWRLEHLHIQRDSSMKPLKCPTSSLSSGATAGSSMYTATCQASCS
In short: as §1

- EC50 (human GIP receptor; 0% HSA, read-out: hGIPR, CRE Luc 0% HSA EC50): 0.0018 nM
- EC50 (human GIP receptor; hGIPR, CRE Luc 1% HSA EC50, 1% HSA): 0.097 nM
- EC50 (human GLP-1 receptor; 0% HSA, read-out: hGLP-1R, CRE Luc 0% HSA EC50): 0.0015 nM
- EC50 (human GLP-1 receptor; hGLP-1R, CRE Luc 1% HSA EC50, 1% HSA): 0.111 nM
Compound: CC[C@H](C)[C@H](NC(=O)[C@H](Cc1ccccc1)NC(=O)[C@H](CCC(=O)O)NC(=O)[C@H](CCCNC(=N)N)NC(=O)[C@H](C)NC(=O)[C@H](C)NC(=O)[C@H](CCC(N)=O)NC(=O)[C@H](CCC(=O)O)NC(=O)[C@H](CCC(=O)O)NC(=O)[C@H](CC(C)C)NC(=O)[C@H](CC(C)C)NC(=O)[C@@H](NC(=O)[C@H](CO)NC(=O)[C@H](Cc1ccc(O)cc1)NC(=O)[C@H](CC(=O)O)NC(=O)[C@H](CO)NC(=O)[C@@H](NC(=O)[C@H](Cc1ccccc1)NC(=O)[C@@H](NC(=O)CNC(=O)[C@H](CCC(=O)O)NC(=O)C(C)(C)NC(=O)[C@@H](N)Cc1ccc(O)cc1)[C@@H](C)O)[C@@H](C)O)[C@@H](C)CC)C(=O)N[C@@H](CCC(=O)O)C(=O)N[C@@H](Cc1c[nH]c2ccccc12)C(=O)N[C@@H](CC(C)C)C(=O)N[C@@H](CC(C)C)C(=O)N[C@@H](C)C(=O)NCC(=O)NCC(=O)N1CCC[C@H]1C(=O)N[C@@H](CO)C(=O)N[C@@H](CCCCNC(=O)[C@@H](N)CCCCNC(=O)[C@@H](N)CCCCNC(=O)CC[C@H](NC(=O)CCCCCCCCCCCCCCC(=O)O)C(=O)O)C(=O)NCC(=O)N[C@@H](C)C(=O)N1CCC[C@H]1C(=O)N1CCC[C@H]1C(=O)N1CCC[C@H]1C(=O)N[C@@H](CO)C(=O)O [Compound 46] (H-Y[Aib]EGTFTSDYSILLEEQAAREFIEWLLAGGPSK([εLys-εLys-γGlu-C16 diacid])GAPPPS-OH)
